# Data reported in the supplement of paper PMC11061612.
# Tests used:
# Test in all cases: Bliss excess, mean over the matrix (fraction); higher = more synergy
# [1] = system: BT-474 (Breast Carcinoma)
# Outline: (§1)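 Cell lines grown in DMEM/F12 or RPMI with 10% FBS were plated in 1536-well plates and held 24 hours at 37°C, 5% CO2 before 72 hours of exposure to two-drug dose matrices, with DMSO typically at 0.2%. CellTiter-Glo 2.0 luminescence gave viability, which was converted to inhibition. Vehicle wells were set to 0 and blank wells to 1. Combination Emax is the second-highest inhibition in the matrix, and Bliss excess is the observed combination effect minus the expected EA + EB − EA·EB, where EA and EB are the single-agent effects.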
# [2] = system: CAL-85-1 (Breast Carcinoma)
# Outline: as §1
# DK-MG (Glioblastoma) = system: DK-MG (Glioblastoma)
# Outline: as §1
# [3] = system: Daudi (Burkitt's Lymphoma)
# Outline: as §1
# [4] = system: GRANTA-519 (B-Cell Non-Hodgkin's Lymphoma)
# Outline: as §1
# HT-144 (Melanoma) = system: HT-144 (Melanoma)
# Outline: as §1
# [5] = system: JJN-3 (Plasma Cell Myeloma)
# Outline: as §1
# [6] = system: MDA-MB-175-VII (Breast Carcinoma)
# Outline: as §1
# [7] = system: NCI-H1648 (Lung Adenocarcinoma)
# Outline: as §1
# [8] = system: NCI-H1944 (Lung Adenocarcinoma)
# Outline: as §1
# [9] = system: NCI-H2009 (Lung Adenocarcinoma)
# Outline: as §1
# [10] = system: NCI-H2170 (Squamous Cell Lung Carcinoma)
# Outline: as §1
# NCI-H2452 (Mesothelioma) = system: NCI-H2452 (Mesothelioma)
# Outline: as §1
# [11] = system: OVKATE (Ovarian Carcinoma)
# Outline: as §1
# [12] = system: RPMI-8402 (T-Lymphoblastic Leukemia)
# Outline: as §1
# [13] = system: SBC-3 (Small Cell Lung Carcinoma)
# Outline: as §1
# SK-MEL-24 (Melanoma) = system: SK-MEL-24 (Melanoma)
# Outline: as §1
# [14] = system: SNU-1 (Gastric Carcinoma)
# Outline: as §1
# [15] = system: SUP-HD1 (Hodgkin's Lymphoma)
# Outline: as §1
# [16] = system: TOV-21G (Ovarian Carcinoma)
# Outline: as §1
SMILES,Bliss excess [1],Bliss excess [2],Bliss excess (DK-MG (Glioblastoma)),Bliss excess [3],Bliss excess [4],Bliss excess (HT-144 (Melanoma)),Bliss excess [5],Bliss excess [6],Bliss excess [7],Bliss excess [8],Bliss excess [9],Bliss excess [10],Bliss excess (NCI-H2452 (Mesothelioma)),Bliss excess [11],Bliss excess [12],Bliss excess [13],Bliss excess (SK-MEL-24 (Melanoma)),Bliss excess [14],Bliss excess [15],Bliss excess [16]
"COc1cccc(OCCCN)c1-c1cc(Nc2cnc(C#N)cn2)n[nH]1 [Prexasertib] + Cc1cc2ncnn2cc1Nc1ncc2c(n1)n(C1CCOCC1)c(=O)n2C [AZD7648] (first compound max 1 µM, 7x7, partner max 10 µM)",-0.0188,0.0382,0.0253,0.0017,-0.0489,-0.0061,-0.0097,-0.0328,-0.0609,-0.0028,-0.027,-0.0074,-0.0623,-0.0853,-0.0127,-0.0512,0.0054,-0.0198,-0.0443,0.0057
"COc1nnc2ccc(N3CCC(c4ccc(OCCN5CCN(C)C(=O)[C@H]5C)cc4)CC3)nn12 [AZD5153] + CC1(C)CCC(CN2CCN(c3ccc(C(=O)NS(=O)(=O)c4ccc(NCC5CCOCC5)c([N+](=O)[O-])c4)c(Oc4cnc5[nH]ccc5c4)c3)CC2)=C(c2ccc(Cl)cc2)C1 [Venetoclax] (first compound max 1 µM, 7x7, partner max 1 µM)",-0.078,-0.0582,-0.0766,-0.0458,0.0237,-0.0488,0.0278,0.0346,-0.062,-0.0824,-0.0432,-0.0329,0.0059,-0.0037,0.0135,-0.0545,-0.0685,-0.0523,-0.0316,-0.0264
"CC1(C)CCC(CN2CCN(c3ccc(C(=O)NS(=O)(=O)c4ccc(NCC5CCOCC5)c([N+](=O)[O-])c4)c(Oc4cnc5[nH]ccc5c4)c3)CC2)=C(c2ccc(Cl)cc2)C1 [Venetoclax] + CN(C)CCCOc1ccc(-c2ccc3ncc4c(c3c2)n(C2CCOCC2)c(=O)n4C)cn1 [AZD0156] (first compound max 1 µM, 7x7, partner max 1 µM)",-0.0072,-0.0476,-0.0222,-0.0194,0.0334,0.0366,0.0008,-0.0319,-0.0685,-0.0052,-0.0283,0.024,-0.0149,-0.0856,0.0022,-0.0369,-0.0426,-0.0069,-0.0962,-0.0322
"CC1(C)CCC(CN2CCN(c3ccc(C(=O)NS(=O)(=O)c4ccc(NCC5CCOCC5)c([N+](=O)[O-])c4)c(Oc4cnc5[nH]ccc5c4)c3)CC2)=C(c2ccc(Cl)cc2)C1 [Venetoclax] + C1CN(CCC1(C(=O)N[C@@H](CCO)C2=CC=C(C=C2)Cl)N)C3=NC=NC4=C3C=CN4 [Capivasertib] (first compound max 1 µM, 7x7, partner max 3 µM)",-0.0376,-0.031,-0.0193,-0.0103,0.0036,-0.0575,-0.0035,-0.0175,-0.0405,-0.0343,-0.0299,-0.0434,-0.0318,-0.0458,-0.0544,-0.0457,-0.0695,-0.0535,-0.0636,-0.0533
"CC(=O)c1c(C)c2cnc(Nc3ccc(N4CCNCC4)cn3)nc2n(C2CCCC2)c1=O [Palbociclib] + Cc1c2c(nn1C)CSCc1cc(n(C)n1)CSc1cc(c3ccccc3c1)OCCCc1c(C(=O)O)n(C)c3c-2c(Cl)ccc13 [AZD5991] (first compound max 10 µM, 7x7, partner max 1 µM)",-0.0924,-0.0101,-0.0018,0.0059,0.0039,-0.0757,-0.0434,0.0232,-0.0084,0.0187,-0.0567,-0.0189,-0.0651,-0.0382,0.0046,-0.043,-0.0196,-0.0691,-0.0704,-0.0439
"NC1(C(=O)N[C@@H](CCO)c2ccc(Cl)cc2)CCN(c2ncnc3[nH]ccc23)CC1 [Capivasertib] + CCN(CCO)CCCOc1ccc2c(Nc3cc(CC(=O)Nc4cccc(F)c4)[nH]n3)ncnc2c1 [AZD2811] (first compound max 10 µM, 7x7, partner max 1 µM)",0.0025,-0.0241,-0.0447,0.103,0.0258,-0.0195,-0.0148,-0.0202,-0.0419,0.101,0.0001,0.0135,-0.079,-0.0367,-0.0421,0.059,-0.0891,0.0214,-0.0307,0.0123
"CC1(C)CCC(CN2CCN(c3ccc(C(=O)NS(=O)(=O)c4ccc(NCC5CCOCC5)c([N+](=O)[O-])c4)c(Oc4cnc5[nH]ccc5c4)c3)CC2)=C(c2ccc(Cl)cc2)C1 [Venetoclax] + Cc1cc2ncnn2cc1Nc1ncc2c(n1)n(C1CCOCC1)c(=O)n2C [AZD7648] (first compound max 1 µM, 7x7, partner max 10 µM)",-0.0622,-0.0251,-0.0355,0.004,0.0007,-0.0798,0.0741,-0.0444,-0.0431,0.0189,-0.053,-0.0109,-0.0388,-0.113,0.0235,-0.0729,-0.0553,-0.0408,-0.0659,-0.002
"NC1(C(=O)N[C@@H](CCO)c2ccc(Cl)cc2)CCN(c2ncnc3[nH]ccc23)CC1 [Capivasertib] + Cn1cnc2c(F)c(Nc3ccc(Br)cc3Cl)c(C(=O)NOCCO)cc21 [Selumetinib] (first compound max 10 µM, 7x7, partner max 10 µM)",0.0509,-0.0429,0.0686,-0.0138,-0.0205,0.0042,0.0565,0.0989,0.0807,0.0543,-0.0191,0.0047,-0.092,0.0215,-0.037,-0.0353,-0.0145,0.0764,-0.0141,0.0122
"CC1(C)CCC(CN2CCN(c3ccc(C(=O)NS(=O)(=O)c4ccc(NCC5CCOCC5)c([N+](=O)[O-])c4)c(Oc4cnc5[nH]ccc5c4)c3)CC2)=C(c2ccc(Cl)cc2)C1 [Venetoclax] + COc1cc(Nc2ncc3c(n2)-c2ccc(Cl)cc2C(c2c(F)cccc2OC)=NC3)ccc1C(=O)O [Alisertib] (first compound max 1 µM, 7x7, partner max 10 µM)",-0.0136,-0.007,-0.0012,-0.0718,0.438,0.0089,0.45,-0.0221,0.0579,-0.0192,0.0023,-0.0702,0.0053,-0.0154,-0.0525,0.0101,-0.0132,-0.0103,0.0776,-0.006
"Cc1c2c(nn1C)CSCc1cc(n(C)n1)CSc1cc(c3ccccc3c1)OCCCc1c(C(=O)O)n(C)c3c-2c(Cl)ccc13 [AZD5991] + C[C@@H](Nc1cc(F)cc(F)c1)c1cc(C(=O)N(C)C)cc2c(=O)cc(N3CCOCC3)oc12 [AZD8186] (first compound max 1 µM, 7x7, partner max 3 µM)",-0.0099,-0.0067,0.0095,0.0234,-0.0444,0.0622,-0.0448,-0.0006,-0.0508,-0.0141,-0.0076,0.0095,0.0441,-0.0298,0.0272,-0.0341,-0.0081,0.002,-0.0414,-0.0139
"Cn1cnc2c(F)c(Nc3ccc(Br)cc3Cl)c(C(=O)NOCCO)cc21 [Selumetinib] + CC(C)n1c(=O)n(C)c2cnc3cc(F)c(-c4ccc(OCCCN5CCCCC5)nc4)cc3c21 [AZD1390] (first compound max 10 µM, 7x7, partner max 0.3 µM)",-0.0469,-0.0039,0.0063,-0.02,-0.0254,-0.0653,0.0046,-0.0235,-0.0418,-0.0306,-0.0254,-0.0384,-0.0732,-0.0178,-0.039,-0.0592,-0.014,0.025,-0.043,-0.0336
"COc1nnc2ccc(N3CCC(c4ccc(OCCN5CCN(C)C(=O)[C@H]5C)cc4)CC3)nn12 [AZD5153] + Cn1cnc2c(F)c(Nc3ccc(Br)cc3Cl)c(C(=O)NOCCO)cc21 [Selumetinib] (first compound max 1 µM, 7x7, partner max 10 µM)",-0.0245,-0.0298,-0.032,-0.059,-0.0143,0.0212,-0.0076,0.019,0.0093,-0.0008,-0.0123,-0.0712,-0.029,-0.0413,-0.0608,-0.0811,-0.0003,0.063,-0.0019,-0.02
"COc1nnc2ccc(N3CCC(c4ccc(OCCN5CCN(C)C(=O)[C@H]5C)cc4)CC3)nn12 [AZD5153] + C=CCn1c(=O)c2cnc(Nc3ccc(N4CCN(C)CC4)cc3)nc2n1-c1cccc(C(C)(C)O)n1 [AZD1775] (first compound max 1 µM, partner max 1 µM)",-0.0279,-0.0551,-0.0209,-0.0642,-0.0227,0.0394,-0.0673,-0.0255,-0.0816,0.0333,-0.0229,0.06,-0.0525,-0.0373,-0.0212,-0.0111,-0.0421,-0.0873,-0.114,-0.0246
"CC1(C)CCC(CN2CCN(c3ccc(C(=O)NS(=O)(=O)c4ccc(NCC5CCOCC5)c([N+](=O)[O-])c4)c(Oc4cnc5[nH]ccc5c4)c3)CC2)=C(c2ccc(Cl)cc2)C1 [Venetoclax] + C[C@@H]1COCCN1C2=NC(=NC(=C2)C3(CC3)[S@](=N)(=O)C)C4=C5C=CNC5=NC=C4 [AZD6738] (first compound max 1 µM, 7x7, partner max 10 µM)",-0.0265,-0.0195,-0.0914,-0.0278,0.0342,0.0378,0.067,-0.0433,-0.0262,-0.0023,-0.0357,-0.0019,-0.0034,-0.0291,0.0103,-0.0906,-0.0429,-0.0114,-0.0605,-0.0256
